Assay results taken from patent US10723724B2, “Compounds for treating degenerative diseases of central nervous system or brain tumor, and uses thereof” (SUN YAT-SEN UNIVERSITY, priority 2016, dated 2020).

Columns and labels:
Format in all cases: biochemical
PTK6 (Brk) = molecular target: T1, PTK6 (Brk) (Homo sapiens, UniProt Q13882); test: Kinase screening service: PTK6; settings: average of duplicates
T1 construct: purchased Life Technologies Corporation (Kinase Screening Service)
Description: (§1) The inhibitory effect of PT109 on other kinases including SGK and JNK was detected by the Kinase Screening Service of Life Technologies Corporation (The concentration of compound 9 was 10 μM, measurements were performed in duplicates, and the value was represented by an average) to investigate the selectivity of the compound for JNK and SGK1.

PRKCG (PKC gamma) = molecular target: T2, PRKCG (PKC gamma) (Homo sapiens, UniProt P05129); test: Kinase screening service: PRKCG; settings: average of duplicates
T2 construct: purchased Life Technologies Corporation (Kinase Screening Service)
Description: as §1

CSNK1A1 (CK1 alpha 1) = molecular target: T3, CSNK1A1 (CK1 alpha 1) (Homo sapiens, UniProt P48729); test: Kinase screening service: CSNK1A1; settings: average of duplicates
T3 construct: purchased Life Technologies Corporation (Kinase Screening Service)
T3 sequence (P48729 whole entry): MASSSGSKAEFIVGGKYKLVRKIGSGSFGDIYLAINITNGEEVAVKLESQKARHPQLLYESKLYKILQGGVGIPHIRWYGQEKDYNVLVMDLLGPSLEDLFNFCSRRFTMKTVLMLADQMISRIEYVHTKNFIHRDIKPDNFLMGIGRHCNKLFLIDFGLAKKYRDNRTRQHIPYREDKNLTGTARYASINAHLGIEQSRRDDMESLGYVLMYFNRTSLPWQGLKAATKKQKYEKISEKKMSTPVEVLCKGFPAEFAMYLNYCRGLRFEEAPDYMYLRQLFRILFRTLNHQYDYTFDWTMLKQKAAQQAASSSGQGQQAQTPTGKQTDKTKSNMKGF
Description: as §1

CSNK1E (CK1 epsilon) = molecular target: T4, CSNK1E (CK1 epsilon) (Homo sapiens, UniProt P49674); test: Kinase screening service: CSNK1E; settings: average of duplicates
T4 construct: purchased Life Technologies Corporation (Kinase Screening Service)
Description: as §1

AURKC (Aurora C) = molecular target: T5, AURKC (Aurora C) (Homo sapiens, UniProt Q9UQB9); test: Kinase screening service: AURKC; settings: average of duplicates
T5 construct: purchased Life Technologies Corporation (Kinase Screening Service)
T5 sequence (Q9UQB9 whole entry): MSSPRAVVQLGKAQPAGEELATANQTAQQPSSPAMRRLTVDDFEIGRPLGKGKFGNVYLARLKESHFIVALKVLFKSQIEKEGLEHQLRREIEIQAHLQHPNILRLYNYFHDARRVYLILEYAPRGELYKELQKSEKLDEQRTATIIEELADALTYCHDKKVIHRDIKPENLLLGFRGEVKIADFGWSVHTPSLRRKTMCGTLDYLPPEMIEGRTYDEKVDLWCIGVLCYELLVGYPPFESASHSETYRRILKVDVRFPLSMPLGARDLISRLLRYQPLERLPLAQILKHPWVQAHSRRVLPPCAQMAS
Description: as §1

PKN1 (PRK1) = molecular target: T6, PKN1 (PRK1) (Homo sapiens, UniProt Q16512); test: Kinase screening service: PKN1; settings: average of duplicates
T6 construct: purchased Life Technologies Corporation (Kinase Screening Service)
Description: as §1

MAP4K4 (HGK) = molecular target: T7, MAP4K4 (HGK) (Homo sapiens, UniProt O95819); test: Kinase screening service: MAP4K4; settings: average of duplicates
T7 construct: purchased Life Technologies Corporation (Kinase Screening Service)
Description: as §1

STK22D (TSSK1) = molecular target: T8, STK22D (TSSK1) (Homo sapiens, UniProt Q9BXA7); test: Kinase screening service: STK22D; settings: average of duplicates
T8 construct: purchased Life Technologies Corporation (Kinase Screening Service)
T8 sequence (Q9BXA7 whole entry): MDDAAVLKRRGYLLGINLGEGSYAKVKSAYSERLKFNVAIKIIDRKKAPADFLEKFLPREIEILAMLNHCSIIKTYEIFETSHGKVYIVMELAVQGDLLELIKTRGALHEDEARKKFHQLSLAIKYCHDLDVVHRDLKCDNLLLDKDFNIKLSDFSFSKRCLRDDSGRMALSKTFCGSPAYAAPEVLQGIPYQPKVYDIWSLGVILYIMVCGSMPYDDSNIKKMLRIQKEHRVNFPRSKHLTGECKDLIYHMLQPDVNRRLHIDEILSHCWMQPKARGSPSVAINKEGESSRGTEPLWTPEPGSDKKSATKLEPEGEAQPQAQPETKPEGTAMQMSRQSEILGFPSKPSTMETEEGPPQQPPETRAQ
Description: as §1

NTRK1 (TRKA) = molecular target: T9, NTRK1 (TRKA) (Homo sapiens, UniProt P04629); test: Kinase screening service: NTRK1; settings: average of duplicates
T9 construct: purchased Life Technologies Corporation (Kinase Screening Service)
T9 sequence (P04629 33-796): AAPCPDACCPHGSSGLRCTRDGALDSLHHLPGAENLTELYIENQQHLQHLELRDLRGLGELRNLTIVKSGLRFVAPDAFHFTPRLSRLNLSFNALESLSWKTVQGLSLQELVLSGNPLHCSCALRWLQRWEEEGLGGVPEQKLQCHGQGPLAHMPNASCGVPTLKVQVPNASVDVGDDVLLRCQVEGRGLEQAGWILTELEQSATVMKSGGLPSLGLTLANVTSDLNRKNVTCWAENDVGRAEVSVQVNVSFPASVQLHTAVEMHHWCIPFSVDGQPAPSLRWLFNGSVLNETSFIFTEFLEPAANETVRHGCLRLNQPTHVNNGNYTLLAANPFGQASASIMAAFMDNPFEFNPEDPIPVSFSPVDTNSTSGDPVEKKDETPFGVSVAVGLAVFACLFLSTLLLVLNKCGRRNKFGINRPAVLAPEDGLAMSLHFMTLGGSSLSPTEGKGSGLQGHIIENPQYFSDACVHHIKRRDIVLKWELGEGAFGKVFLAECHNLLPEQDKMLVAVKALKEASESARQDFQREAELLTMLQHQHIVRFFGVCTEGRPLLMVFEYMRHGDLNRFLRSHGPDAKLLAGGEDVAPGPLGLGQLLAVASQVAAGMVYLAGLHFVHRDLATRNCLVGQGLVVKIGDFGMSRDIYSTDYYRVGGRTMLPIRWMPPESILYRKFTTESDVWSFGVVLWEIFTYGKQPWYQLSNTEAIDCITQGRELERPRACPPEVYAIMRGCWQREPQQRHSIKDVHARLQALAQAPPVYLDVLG
Description: as §1

EGFR (ErbB1) = molecular target: T10, EGFR (ErbB1) (Homo sapiens, UniProt P00533); test: Kinase screening service: EGFR; settings: average of duplicates
T10 construct: purchased Life Technologies Corporation (Kinase Screening Service)
Description: as §1

SGK3 = molecular target: T11, SGK3 (Homo sapiens, UniProt Q96BR1); test: Kinase screening service (Life Technologies): SGK3
T11 construct: purchased Life Technologies Corporation (kinase screening service)
Text: The inhibitory effect of PT109 on SGK and INK was detected by the kinase screening commercialization service of Life Technologies Corporation.

[1] = molecular target: T12, PIK3CA/PIK3R1 (p110 alpha/p85 alpha) (Homo sapiens, UniProt P42336); test: Kinase screening service: PIK3CA/PIK3R1; settings: average of duplicates
T12 construct: purchased Life Technologies Corporation (Kinase Screening Service)
Description: as §1

WNK2 = molecular target: T13, WNK2 (Homo sapiens, UniProt Q9Y3S1); test: Kinase screening service: WNK2; settings: average of duplicates
T13 construct: purchased Life Technologies Corporation (Kinase Screening Service)
Description: as §1

FGFR4 = molecular target: T14, FGFR4 (Homo sapiens, UniProt P22455); test: Kinase screening service: FGFR4; settings: average of duplicates
T14 construct: purchased Life Technologies Corporation (Kinase Screening Service)
Description: as §1

MAP3K9 (MLK1) = molecular target: T15, MAP3K9 (MLK1) (Homo sapiens, UniProt P80192); test: Kinase screening service: MAP3K9; settings: average of duplicates
T15 construct: purchased Life Technologies Corporation (Kinase Screening Service)
Description: as §1

ULK1 = molecular target: T16, ULK1 (Homo sapiens, UniProt O75385); test: Kinase screening service: ULK1; settings: average of duplicates
T16 construct: purchased Life Technologies Corporation (Kinase Screening Service)
T16 sequence (O75385 whole entry): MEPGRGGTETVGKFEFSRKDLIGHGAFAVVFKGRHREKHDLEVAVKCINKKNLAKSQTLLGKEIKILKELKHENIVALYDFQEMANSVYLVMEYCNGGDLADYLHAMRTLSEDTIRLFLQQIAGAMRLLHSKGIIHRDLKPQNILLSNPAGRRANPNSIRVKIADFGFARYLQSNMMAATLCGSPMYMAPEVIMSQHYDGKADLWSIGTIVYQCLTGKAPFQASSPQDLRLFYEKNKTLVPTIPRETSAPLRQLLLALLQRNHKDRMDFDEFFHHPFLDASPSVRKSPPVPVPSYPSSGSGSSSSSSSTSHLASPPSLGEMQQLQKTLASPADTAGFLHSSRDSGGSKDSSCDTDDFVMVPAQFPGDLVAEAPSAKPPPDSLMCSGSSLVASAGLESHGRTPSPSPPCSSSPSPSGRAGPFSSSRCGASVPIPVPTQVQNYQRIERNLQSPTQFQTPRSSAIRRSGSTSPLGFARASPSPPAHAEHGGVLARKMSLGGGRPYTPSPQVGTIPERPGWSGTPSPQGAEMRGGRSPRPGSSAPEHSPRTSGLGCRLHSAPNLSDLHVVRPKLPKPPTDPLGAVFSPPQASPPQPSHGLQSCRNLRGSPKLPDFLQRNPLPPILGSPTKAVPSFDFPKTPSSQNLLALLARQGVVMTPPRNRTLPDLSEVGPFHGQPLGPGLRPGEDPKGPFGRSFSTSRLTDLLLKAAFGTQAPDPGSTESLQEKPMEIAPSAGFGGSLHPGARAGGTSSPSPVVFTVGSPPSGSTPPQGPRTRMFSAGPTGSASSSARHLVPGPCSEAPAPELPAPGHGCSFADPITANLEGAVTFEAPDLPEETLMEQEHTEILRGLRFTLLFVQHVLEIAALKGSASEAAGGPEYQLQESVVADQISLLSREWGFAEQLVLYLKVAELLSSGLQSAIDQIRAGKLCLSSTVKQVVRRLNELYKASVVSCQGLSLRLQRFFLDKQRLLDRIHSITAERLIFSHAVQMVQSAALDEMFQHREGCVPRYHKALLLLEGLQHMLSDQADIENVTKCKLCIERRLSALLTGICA
Description: as §1

MST1R (RON) = molecular target: T17, MST1R (RON) (Homo sapiens, UniProt Q04912); test: Kinase screening service: MST1R; settings: average of duplicates
T17 construct: purchased Life Technologies Corporation (Kinase Screening Service)
Description: as §1

PIK3CG (p110 gamma) = molecular target: T18, PIK3CG (p110 gamma) (Homo sapiens, UniProt P48736); test: Kinase screening service: PIK3CG; settings: average of duplicates
T18 construct: purchased Life Technologies Corporation (Kinase Screening Service)
T18 sequence (P48736 whole entry): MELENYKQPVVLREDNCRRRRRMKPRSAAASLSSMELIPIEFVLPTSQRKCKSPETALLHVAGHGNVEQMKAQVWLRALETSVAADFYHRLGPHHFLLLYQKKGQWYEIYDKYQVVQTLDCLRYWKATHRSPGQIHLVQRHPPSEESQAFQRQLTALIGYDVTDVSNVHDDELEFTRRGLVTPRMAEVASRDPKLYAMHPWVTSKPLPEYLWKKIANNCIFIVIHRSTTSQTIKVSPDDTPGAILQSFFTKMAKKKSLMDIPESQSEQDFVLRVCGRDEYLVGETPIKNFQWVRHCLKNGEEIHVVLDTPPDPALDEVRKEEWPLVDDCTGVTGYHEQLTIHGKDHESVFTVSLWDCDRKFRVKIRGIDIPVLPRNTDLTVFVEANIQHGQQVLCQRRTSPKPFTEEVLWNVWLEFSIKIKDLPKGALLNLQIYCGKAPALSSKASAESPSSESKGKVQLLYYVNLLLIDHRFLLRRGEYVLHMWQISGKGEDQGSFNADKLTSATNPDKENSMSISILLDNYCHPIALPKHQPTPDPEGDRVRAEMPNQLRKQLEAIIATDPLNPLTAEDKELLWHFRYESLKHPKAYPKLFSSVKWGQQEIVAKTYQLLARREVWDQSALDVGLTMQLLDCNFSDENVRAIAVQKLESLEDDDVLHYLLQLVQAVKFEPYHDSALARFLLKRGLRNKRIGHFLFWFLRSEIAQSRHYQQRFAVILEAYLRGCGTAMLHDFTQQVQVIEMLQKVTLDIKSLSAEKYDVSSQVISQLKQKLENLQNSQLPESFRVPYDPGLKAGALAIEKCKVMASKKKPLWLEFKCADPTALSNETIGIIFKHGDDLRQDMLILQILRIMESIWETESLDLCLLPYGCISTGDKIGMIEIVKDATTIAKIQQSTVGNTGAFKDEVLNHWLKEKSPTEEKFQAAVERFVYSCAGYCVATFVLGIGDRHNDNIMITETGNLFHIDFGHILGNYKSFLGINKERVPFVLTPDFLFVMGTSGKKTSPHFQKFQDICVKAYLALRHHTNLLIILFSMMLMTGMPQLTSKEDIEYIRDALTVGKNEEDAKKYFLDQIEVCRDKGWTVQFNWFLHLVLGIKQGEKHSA
Description: as §1

PRKCH (PKC eta) = molecular target: T19, PRKCH (PKC eta) (Homo sapiens, UniProt P24723); test: Kinase screening service: PRKCH; settings: average of duplicates
T19 construct: purchased Life Technologies Corporation (Kinase Screening Service)
Description: as §1

PRKCA (PKC alpha) = molecular target: T20, PRKCA (PKC alpha) (Homo sapiens, UniProt P17252); test: Kinase screening service: PRKCA; settings: average of duplicates
T20 construct: purchased Life Technologies Corporation (Kinase Screening Service)
Description: as §1

PRKCI (PKC iota) = molecular target: T21, PRKCI (PKC iota) (Homo sapiens, UniProt P41743); test: Kinase screening service: PRKCI; settings: average of duplicates
T21 construct: purchased Life Technologies Corporation (Kinase Screening Service)
Description: as §1

CSNK2A1 (CK2 alpha 1) = molecular target: T22, CSNK2A1 (CK2 alpha 1) (Homo sapiens, UniProt P68400); test: Kinase screening service: CSNK2A1; settings: average of duplicates
T22 construct: purchased Life Technologies Corporation (Kinase Screening Service)
T22 sequence (P68400 whole entry): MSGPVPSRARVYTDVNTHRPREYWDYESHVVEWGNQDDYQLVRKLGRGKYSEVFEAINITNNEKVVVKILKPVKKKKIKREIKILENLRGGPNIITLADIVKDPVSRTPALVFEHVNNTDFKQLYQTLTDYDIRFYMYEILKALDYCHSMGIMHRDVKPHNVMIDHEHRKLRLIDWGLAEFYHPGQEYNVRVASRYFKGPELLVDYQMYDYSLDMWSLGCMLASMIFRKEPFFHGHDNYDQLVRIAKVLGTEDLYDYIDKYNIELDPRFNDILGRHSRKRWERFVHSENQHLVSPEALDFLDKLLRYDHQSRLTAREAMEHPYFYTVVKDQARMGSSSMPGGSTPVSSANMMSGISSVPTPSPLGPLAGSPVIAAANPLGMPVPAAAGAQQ
Description: as §1

MKNK2 (MNK2) = molecular target: T23, MKNK2 (MNK2) (Homo sapiens, UniProt Q9HBH9); test: Kinase screening service: MKNK2; settings: average of duplicates
T23 construct: purchased Life Technologies Corporation (Kinase Screening Service)
Description: as §1

DYRK1A = molecular target: T24, DYRK1A (Homo sapiens, UniProt Q13627); test: Kinase screening service: DYRK1A; settings: average of duplicates
T24 construct: purchased Life Technologies Corporation (Kinase Screening Service)
Description: as §1

PDK1 = molecular target: T25, PDK1 (Homo sapiens, UniProt O15530); test: Kinase screening service: PDK1; settings: average of duplicates
T25 construct: purchased Life Technologies Corporation (Kinase Screening Service)
Description: as §1

In the case of O=C(CCCCC1CCSS1)NC1CCC(Nc2cccc3cnccc23)CC1 (stereo not shown) [PT109, 5-(1,2-dithiolan-3-yl)-N-(4-(isoquinolin-5-ylamino)cyclohexyl) pentanamide], the inhibition at 10 µM (PTK6 (Brk)) is reported as 7%, the inhibition at 10 µM (PRKCG (PKC gamma)) is reported as 63% and the inhibition at 10 µM (CSNK1A1 (CK1 alpha 1)) is reported as 3%. For the same compound, the inhibition at 10 µM (CSNK1E (CK1 epsilon)) was 10%, the inhibition at 10 µM (AURKC (Aurora C)) was 5% and the inhibition at 10 µM (PKN1 (PRK1)) was 16%. The inhibition at 10 µM (MAP4K4 (HGK)) was 34%, the inhibition at 10 µM (STK22D (TSSK1)) was -2% and the inhibition at 10 µM (NTRK1 (TRKA)) was 35%. For the same compound, the inhibition at 10 µM (EGFR (ErbB1)) was -6%, the IC50 (SGK3) was 26.4 µM and the inhibition at 10 µM [1] was 56%. It also gave an inhibition at 10 µM (WNK2) of 13%, an inhibition at 10 µM (FGFR4) of -2% and an inhibition at 10 µM (MAP3K9 (MLK1)) of 2%. The inhibition at 10 µM (ULK1) was 26%, the inhibition at 10 µM (MST1R (RON)) was 35% and the inhibition at 10 µM (PIK3CG (p110 gamma)) was 9%. It also gave an inhibition at 10 µM (PRKCH (PKC eta)) of -17%, an inhibition at 10 µM (PRKCA (PKC alpha)) of 25% and an inhibition at 10 µM (PRKCI (PKC iota)) of -14%. It also gave an inhibition at 10 µM (CSNK2A1 (CK2 alpha 1)) of 14%, an inhibition at 10 µM (MKNK2 (MNK2)) of 26% and an inhibition at 10 µM (DYRK1A) of 16%. The inhibition at 10 µM (PDK1) was 5%.
